In patent US20250186438A1, “TREATMENT OF CLEAR CELL RENAL CELL CARCINOMA” (RACE ONCOLOGY LTD, priority 2022, published 2025):
pIC50: −log10 of the molar value. Where a name gives a salt, the structure may show the parent alone. Read-outs that look alike come from different tables or passages of the source.

What was measured:
786-O cells = experiment: Resazurin cell viability assay, drug combinations with synergy analysis; format: cell-based, Human; conditions: 786-0 cell line; each drug in combination with zantrene; FIG. 1-3
Experimental: (§1) Cell viability was determined using a resazurin metabolic activity assay.
(§2) Resazurin is metabolised into the red-fluorescent resorufin by metabolically active cells. […] Graphpad Prism 9 software was used to generate graphs. Drug IC50 values were determined by cubic spline-lowess regression analysis using Prism 9. At least three independent replicates were performed for each cell line and each drug combination, and data is represented as mean±standard error of the mean (SEM). The culture conditions for each cell line are described below.
(§3) Detail on each of the methods is provided below.
It estimates the expected additive effect of two drugs using the fractional product of the effect of each drug alone, ie:
An observed Fa(Drug1+Drug2) value greater than the expected Fa(Drug1+Drug2) value result indicates synergy, whereas an observed Fa(Drug1+Drug2) lower than the expected value indicates antagonism.
(§4) Using the Henderson-Hasselbalch, Michaelis-Menten, Scatchard, and Hill equations, Chou and Talaly derived the “median-effect” equation to model the median effect dose and sigmoidicity of the dose-response curve, using the inputted doses and corresponding dose-effects. Chou and Talalay also coined the term “CombinationIndex (CI)” to evaluate the degree of synergy between two compounds, defined as: […]
(§5) Within SynergyFinder the Bliss model was used. This model quantifies the degree of synergy as the multiplicative effect of single drugs as if they acted independently. This independence model assumes a stochastic process in which two drugs elicit their effects independently, and the expected combination effect can be calculated based on the probability of independent events.

[1] = tested on: RCC4 EV cells (VHL(−) mutant); experiment: Resazurin cell viability assay (combination synergy analysis; cytotoxic IC50); conditions: Homo sapiens, RCC4, 72 h, read-out: Cytotoxic IC50
Experimental: as §1, §2, §3, §4, §5

[2] = tested on: RCC4 EV cells (VHL(−) mutant); experiment: Clonogenicity assay (colony formation); format: cell-based; conditions: Homo sapiens, ccRCC, VHL status Mut, 96 h drug then 96 h drug-free, read-out: Clonogenic IC50
Experimental: (§6) Clonogenicity assays—Clonogenicity assays were used to determine the colony-forming ability of cells treated with Zantrene. RCC4EV and RCC4 VHL Cells were seeded into 6-well plates at 1000 cells/well and allowed to adhere for 24 h. […] Drug-containing media was removed and replaced with freshmedia (without drug) and cultured for an additional 96 h to allow the formation of cell colonies. At endpoint, media was removed from wells and cells washed with cold PBS twice. Cells were fixed with ice-cold methanol for 10 minutes on ice followed immediately by staining with crystal violet solution (0.5% crystal violet, 25% methanol in PBS) at room temperature. Excess crystal violet solution was washed away and pictures of plates capturedon a ChemiDoc MP Imaging System (Bio-Rad). Images were analysed using the ColonyArea plugin [Guzman C. et al (2014), “ColonyArea: an ImageJ plugin to automatically quantify colony formation in clonogenic assays”, PLoS One, 9(3):e92444] for ImageJ [Schneider C. A. et at (2012), “NIH Image to ImageJ: 25 years of image analysis”, Nat Methods 9(7):671-675] and the percent area of the well filled by colonies determined and presented as % of untreated cells using Prism 9. Four independent replicates were performed for each cell line and data is represented as mean±SEM.

[3] = tested on: RCC4 VHL cells (VHL rescue line); experiment: Clonogenicity assay (colony formation); format: cell-based; conditions: Homo sapiens, ccRCC, VHL status Mut + WT, 96 h drug then 96 h drug-free, read-out: Clonogenic IC50
Experimental: as §6

[4] = cited from earlier work
[5] = 5-day schedule of 60 min infusions
[6] = another trial, doses of 80-250 mg/m2
[7] = patients, 90 min infusion at 260 mg/m2, biphasic elimination
[8] = patients, 90 min infusion at 260 mg/m2
[9] = single dose study, triphasic elimination, first of three
[10] = single dose study, triphasic elimination, second of three

## CO[C@H]1C[C@@H]2CC[C@@H](C)[C@@](O)(O2)C(=O)C(=O)N2CCCC[C@H]2C(=O)O[C@H]([C@H](C)C[C@@H]2CC[C@@H](OCCO)[C@H](OC)C2)CC(=O)[C@H](C)/C=C(\C)[C@@H](O)[C@@H](OC)C(=O)[C@H](C)C[C@H](C)/C=C/C=C/C=C/1C [everolimus]
786-O cells
  Combination effect with zantrene, method of Webb analysis: Synergy

## CNC(=O)c1cc(Oc2ccc(NC(=O)Nc3ccc(Cl)c(C(F)(F)F)c3)cc2)ccn1 [sorafenib]
786-O cells
  Combination effect with zantrene, method of Webb analysis: Synergy

## C(=NNC1=NCCN1)c1c2ccccc2c(C=NNC2=NCCN2)c2ccccc12 [bisantrene, 9,10-anthracenedicarboxaldehyde bis[(4,5 dihydro-1H-imidazo-2-yl)hydrazine]dihydrochloride]
[1]
  pIC50: 6.04
[2]
  pIC50: 6.78
[3]
  pIC50: 6.32
[4]; [5]
  Dose excreted in the urine: 7.1%
  t½ α: 0.9 h
  t½ β: 9.7 h
[4]; 72 h infusion study, dose of 56 mg/m2
  Plasma concentration: 12 ± 6 ng/mL
[4]; 72 h infusion study, dose of 260 mg/m2
  Plasma concentration: 55 ± 8 ng/mL
[4]; 72 h infusion study
  Plasma clearance: 1306±179 mL/min/m2
[4]; [6]
  Calculated volume of distribution: 42.1 ± 5.9 L/kg
  Clearance: 17.425 ± 0.85 mL/min/kg
  Initial half-life: 0.6 h
  Terminal half-life: 24.7 h
[4]; in 24 h, 90 min infusion at 260 mg/m2
  Administered dose excreted unchanged in the urine: 11.3%
[4]; in 24 h, 72 h infusion study
  Urinary excretion of the dose: 4.6%
[4]; one report, interpreted as tissue sequestration with depot effect
  Volume of distribution: 687 L/m2
[4]; over 96 h, doses of 80-250 mg/m2
  Administered dose found in the urine: 3.4±1.1%
[4]; [7]
  Initial half-life: 1.08 ± 0.25 h
  Terminal half-life: 19.03 ± 3.77 h
[4]; [8]
  Plasma clearance: 735 mL/min/m2
  Steady state volume of distribution (Vdss): 1845 L/m2
[4]; [9]
  t½ α: 0.0573 h
  t½ β: 1.33 h
  t½ γ: 26.13 h
[4]; [10]
  t½ α: 0.05 h
  t½ β: 1 h
  t½ γ: 8 h

## COc1cc2nccc(Oc3ccc(NC(=O)NC4CC4)c(Cl)c3)c2cc1C(N)=O [lenvatinib]
786-O cells
  Combination effect with zantrene, method of Webb analysis: strongest synergy
